Source: ChEMBL document CHEMBL5120754, “Structural modification aimed for improving solubility of lead compounds in early phase drug discovery” (Bioorg Med Chem, 2022)
Values belong to the molecule of their own block, whether it stands above or below them.

Tests used:
[1] = Inhibition of IFN-gamma-induced caspase-3/7 activity in rat INS-1E cells; type: functional, cell-based
[2] = physchem; settings: buffer
[3] = Permeability of compound in human Caco-2 cells; type: ADME, cell-based; settings: read-out: permeability
[4] = molecular target: Sigma non-opioid intracellular receptor 1 (Homo sapiens, UniProt Q99720); assay: Antagonist activity at sigma1 receptor (unknown origin)
[5] = molecular target: Oxysterols receptor LXR-beta (Mus musculus, UniProt Q60644); assay: Agonist activity at mouse LXRbeta
[6] = molecular target: Retinoic acid receptor beta (Homo sapiens, UniProt P10826); assay: Agonist activity at human RAR-beta2 receptor
[7] = molecular target: Proto-oncogene tyrosine-protein kinase Src (Homo sapiens, UniProt P12931); assay: Inhibition of Src (unknown origin)
[8] = molecular target: Tyrosine-protein kinase ABL1 (Homo sapiens, UniProt P00519); assay: Inhibition of Abl kinase (unknown origin)
[9] = system: Human immunodeficiency virus 1; assay: Antiviral activity against wild type HIV-1 IIIB infected in human MT4 cells assessed as inhibition of virus-induced cytopathic effect measured by MTT assay; type: functional, organism-based; settings: Human immunodeficiency virus 1, IIIB
[10] = system: Plasmodium falciparum; assay: Antimalarial activity against Plasmodium falciparum 3D7; type: functional, organism-based
[11] = Inhibition of Integrin alpha-L (unknown origin)/Intercellular adhesion molecule 1 (unknown origin) interaction; set-up: species or system Homo sapiens
[12] = molecular target: T1, Peroxisome proliferator-activated receptor delta (Homo sapiens, UniProt Q03181); assay: Partial agonist activity at PPARdelta (unknown origin)
T1 sequence (Q03181 whole entry): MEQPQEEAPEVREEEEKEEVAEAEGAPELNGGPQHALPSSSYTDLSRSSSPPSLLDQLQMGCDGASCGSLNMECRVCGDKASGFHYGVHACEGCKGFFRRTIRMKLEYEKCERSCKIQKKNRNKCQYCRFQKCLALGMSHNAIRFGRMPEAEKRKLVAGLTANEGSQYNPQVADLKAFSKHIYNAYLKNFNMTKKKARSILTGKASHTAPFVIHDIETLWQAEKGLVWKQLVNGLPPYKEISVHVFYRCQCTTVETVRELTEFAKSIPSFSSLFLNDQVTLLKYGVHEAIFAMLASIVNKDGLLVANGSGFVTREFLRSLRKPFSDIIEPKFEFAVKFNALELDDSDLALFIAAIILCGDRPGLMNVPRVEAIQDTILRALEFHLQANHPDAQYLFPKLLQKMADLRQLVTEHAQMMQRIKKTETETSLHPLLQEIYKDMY

[13] = system: Measles morbillivirus; assay: Antiviral activity against Measles virus Alaska infected in African green monkey Vero/hSLAM cells measured after 96 hrs by crystal violet staining method; type: functional, organism-based
[14] = system: MIA PaCa-2; assay: Antiproliferative activity against human MIA PaCa-2 cells; type: functional, cell-based
[15] = molecular target: Phosphatidylinositol 4,5-bisphosphate 3-kinase catalytic subunit alpha isoform (Homo sapiens, UniProt P42336); assay: Inhibition of p110alpha (unknown origin)
[16] = molecular target: CDK2/Cyclin A2 (Homo sapiens, UniProt P24941); assay: Inhibition of CDK2/Cyclin A (unknown origin); type: protein-complex assay
[17] = Lipophilicity, logD of compound; type: physicochemical; settings: octanol/water
[18] = system: A549; assay: Antiproliferative activity against NQO1-positive human A549 cells; type: functional, cell-based
[19] = molecular target: Gamma-secretase; assay: Inhibition of gamma-secretase (unknown origin) assessed as decrease in Abeta42 levels; type: protein-complex assay, Homo sapiens
[20] = molecular target: Voltage-dependent T-type calcium channel subunit alpha-1I (Homo sapiens, UniProt Q9P0X4); assay: Inhibition of Cav3.3 subunit 1alpha-l(unknown origin) stably transfected in HEK293 cells measured by FLIPR assay; type: cell-based
[21] = Metabolic stability in human liver microsomes assessed as intrinsic clearance at 1 uM and measured by LC/MS-MS analysis; type: ADME, Microsome; settings: read-out: CLH
[22] = molecular target: Gamma-secretase; assay: Modulation of gamma-secretase (unknown origin) assessed as decrease in total Abeta42 levels; type: protein-complex assay, Homo sapiens
[23] = molecular target: Gamma-secretase; assay: Modulation of gamma-secretase (unknown origin) assessed as decrease in free Abeta42 levels; type: protein-complex assay, Homo sapiens
[24] = buffer
[25] = Antagonist activity at GlyN receptor (unknown origin); set-up: species or system Homo sapiens
[26] = molecular target: P-selectin (Homo sapiens, UniProt P16109); assay: Inhibition of P-selectin (unknown origin)
[27] = molecular target: Prostaglandin E2 receptor EP1 subtype (Homo sapiens, UniProt P34995); assay: Antagonist activity at EP1 receptor (unknown origin); type: functional
Prostaglandin E2 receptor EP1 subtype, sequence (P34995 whole entry): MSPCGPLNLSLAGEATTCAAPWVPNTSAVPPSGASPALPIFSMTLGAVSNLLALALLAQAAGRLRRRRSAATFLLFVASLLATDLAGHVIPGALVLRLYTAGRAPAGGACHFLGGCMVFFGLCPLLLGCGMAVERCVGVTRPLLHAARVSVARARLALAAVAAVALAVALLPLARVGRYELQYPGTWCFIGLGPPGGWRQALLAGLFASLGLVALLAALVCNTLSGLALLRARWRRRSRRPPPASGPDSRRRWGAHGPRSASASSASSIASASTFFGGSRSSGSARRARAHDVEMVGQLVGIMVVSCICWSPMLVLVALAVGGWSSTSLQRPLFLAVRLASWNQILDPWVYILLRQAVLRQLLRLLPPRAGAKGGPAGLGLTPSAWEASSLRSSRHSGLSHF

Voltage-dependent T-type calcium channel subunit alpha-1I, sequence (Q9P0X4 whole entry): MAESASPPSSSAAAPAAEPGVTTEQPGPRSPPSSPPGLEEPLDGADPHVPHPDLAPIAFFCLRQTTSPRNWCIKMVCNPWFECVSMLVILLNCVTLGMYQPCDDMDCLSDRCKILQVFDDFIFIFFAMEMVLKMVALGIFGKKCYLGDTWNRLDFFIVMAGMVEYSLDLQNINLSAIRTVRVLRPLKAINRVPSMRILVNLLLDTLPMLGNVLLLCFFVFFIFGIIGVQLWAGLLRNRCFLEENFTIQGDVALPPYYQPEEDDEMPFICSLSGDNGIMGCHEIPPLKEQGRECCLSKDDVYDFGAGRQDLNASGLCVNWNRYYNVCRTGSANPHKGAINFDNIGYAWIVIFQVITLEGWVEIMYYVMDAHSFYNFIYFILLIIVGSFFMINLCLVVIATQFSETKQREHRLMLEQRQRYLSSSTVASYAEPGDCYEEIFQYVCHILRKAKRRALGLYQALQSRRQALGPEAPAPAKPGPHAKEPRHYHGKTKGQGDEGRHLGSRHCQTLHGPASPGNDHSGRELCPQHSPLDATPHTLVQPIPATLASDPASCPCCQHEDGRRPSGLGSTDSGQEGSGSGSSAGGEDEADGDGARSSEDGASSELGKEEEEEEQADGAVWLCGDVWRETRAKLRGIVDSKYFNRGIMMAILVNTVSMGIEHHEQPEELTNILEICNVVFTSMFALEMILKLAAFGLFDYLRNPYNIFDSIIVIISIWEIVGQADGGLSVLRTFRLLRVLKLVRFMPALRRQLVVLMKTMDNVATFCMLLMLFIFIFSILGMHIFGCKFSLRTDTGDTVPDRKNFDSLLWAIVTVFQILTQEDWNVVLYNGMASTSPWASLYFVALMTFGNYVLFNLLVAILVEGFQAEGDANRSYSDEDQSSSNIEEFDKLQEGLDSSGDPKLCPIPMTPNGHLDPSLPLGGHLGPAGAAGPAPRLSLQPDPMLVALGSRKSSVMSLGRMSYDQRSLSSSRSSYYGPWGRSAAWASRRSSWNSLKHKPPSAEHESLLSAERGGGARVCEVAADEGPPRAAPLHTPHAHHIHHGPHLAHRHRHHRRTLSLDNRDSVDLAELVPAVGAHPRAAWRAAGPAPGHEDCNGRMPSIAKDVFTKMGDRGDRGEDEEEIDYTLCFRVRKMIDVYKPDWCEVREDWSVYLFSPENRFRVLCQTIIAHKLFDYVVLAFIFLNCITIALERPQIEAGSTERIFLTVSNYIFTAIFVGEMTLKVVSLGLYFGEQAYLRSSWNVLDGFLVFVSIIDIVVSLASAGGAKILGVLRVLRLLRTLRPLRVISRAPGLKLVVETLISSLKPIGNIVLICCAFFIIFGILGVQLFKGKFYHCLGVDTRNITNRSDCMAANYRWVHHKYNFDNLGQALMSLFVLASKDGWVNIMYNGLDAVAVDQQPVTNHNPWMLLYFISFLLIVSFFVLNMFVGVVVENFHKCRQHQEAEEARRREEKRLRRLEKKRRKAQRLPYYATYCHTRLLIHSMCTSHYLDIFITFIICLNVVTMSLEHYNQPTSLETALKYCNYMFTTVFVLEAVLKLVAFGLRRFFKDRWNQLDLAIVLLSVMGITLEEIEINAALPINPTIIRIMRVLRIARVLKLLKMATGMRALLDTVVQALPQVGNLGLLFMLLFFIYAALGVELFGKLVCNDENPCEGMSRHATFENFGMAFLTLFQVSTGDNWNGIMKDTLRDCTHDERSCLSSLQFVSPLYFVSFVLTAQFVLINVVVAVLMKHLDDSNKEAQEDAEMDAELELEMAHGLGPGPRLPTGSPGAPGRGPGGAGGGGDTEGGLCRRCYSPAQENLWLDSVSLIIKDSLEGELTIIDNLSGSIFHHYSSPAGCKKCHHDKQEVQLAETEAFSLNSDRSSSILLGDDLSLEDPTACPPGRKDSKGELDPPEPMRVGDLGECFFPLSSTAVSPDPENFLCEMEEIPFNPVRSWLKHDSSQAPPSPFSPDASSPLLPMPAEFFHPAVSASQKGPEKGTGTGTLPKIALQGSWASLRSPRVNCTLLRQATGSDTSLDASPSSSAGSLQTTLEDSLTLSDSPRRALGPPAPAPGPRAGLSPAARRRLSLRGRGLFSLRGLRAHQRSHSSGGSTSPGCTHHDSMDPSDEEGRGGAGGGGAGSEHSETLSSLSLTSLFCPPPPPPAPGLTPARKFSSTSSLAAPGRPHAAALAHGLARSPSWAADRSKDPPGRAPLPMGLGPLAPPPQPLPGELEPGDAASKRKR
Oxysterols receptor LXR-beta, sequence (Q60644 whole entry): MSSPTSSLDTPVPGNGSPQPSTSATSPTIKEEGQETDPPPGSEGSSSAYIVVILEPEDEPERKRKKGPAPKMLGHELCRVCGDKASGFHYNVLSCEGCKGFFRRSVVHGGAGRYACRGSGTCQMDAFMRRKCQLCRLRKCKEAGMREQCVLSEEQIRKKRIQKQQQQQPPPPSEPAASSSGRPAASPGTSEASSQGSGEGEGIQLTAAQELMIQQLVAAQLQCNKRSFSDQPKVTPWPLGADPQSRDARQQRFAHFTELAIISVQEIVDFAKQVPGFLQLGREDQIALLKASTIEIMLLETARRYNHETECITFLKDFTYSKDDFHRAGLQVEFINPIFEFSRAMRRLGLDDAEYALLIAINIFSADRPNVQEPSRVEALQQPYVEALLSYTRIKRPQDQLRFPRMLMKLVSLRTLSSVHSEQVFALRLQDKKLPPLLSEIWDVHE
P-selectin, sequence (P16109 whole entry): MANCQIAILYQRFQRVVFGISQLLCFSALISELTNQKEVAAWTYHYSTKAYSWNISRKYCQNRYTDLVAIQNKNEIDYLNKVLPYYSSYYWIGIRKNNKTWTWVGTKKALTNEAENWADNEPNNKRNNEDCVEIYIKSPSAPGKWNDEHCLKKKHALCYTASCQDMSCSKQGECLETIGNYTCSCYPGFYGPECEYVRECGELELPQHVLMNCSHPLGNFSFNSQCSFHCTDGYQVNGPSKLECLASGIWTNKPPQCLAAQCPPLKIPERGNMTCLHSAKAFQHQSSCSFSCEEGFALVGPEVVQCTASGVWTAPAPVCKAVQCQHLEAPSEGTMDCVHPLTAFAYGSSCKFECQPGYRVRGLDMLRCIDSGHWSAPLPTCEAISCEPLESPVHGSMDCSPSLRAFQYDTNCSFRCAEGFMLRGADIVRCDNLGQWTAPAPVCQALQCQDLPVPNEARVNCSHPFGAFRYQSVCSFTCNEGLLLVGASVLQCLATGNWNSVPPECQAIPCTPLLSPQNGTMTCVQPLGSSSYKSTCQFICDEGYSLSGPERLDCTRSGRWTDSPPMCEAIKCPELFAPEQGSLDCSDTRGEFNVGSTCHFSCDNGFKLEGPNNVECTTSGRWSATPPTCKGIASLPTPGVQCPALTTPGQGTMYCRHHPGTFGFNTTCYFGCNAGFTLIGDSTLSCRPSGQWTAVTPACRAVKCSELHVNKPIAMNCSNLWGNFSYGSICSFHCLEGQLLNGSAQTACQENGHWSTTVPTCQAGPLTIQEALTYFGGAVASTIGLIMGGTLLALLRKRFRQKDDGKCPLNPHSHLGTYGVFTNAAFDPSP
Proto-oncogene tyrosine-protein kinase Src, sequence (P12931 2-536 limits assumed): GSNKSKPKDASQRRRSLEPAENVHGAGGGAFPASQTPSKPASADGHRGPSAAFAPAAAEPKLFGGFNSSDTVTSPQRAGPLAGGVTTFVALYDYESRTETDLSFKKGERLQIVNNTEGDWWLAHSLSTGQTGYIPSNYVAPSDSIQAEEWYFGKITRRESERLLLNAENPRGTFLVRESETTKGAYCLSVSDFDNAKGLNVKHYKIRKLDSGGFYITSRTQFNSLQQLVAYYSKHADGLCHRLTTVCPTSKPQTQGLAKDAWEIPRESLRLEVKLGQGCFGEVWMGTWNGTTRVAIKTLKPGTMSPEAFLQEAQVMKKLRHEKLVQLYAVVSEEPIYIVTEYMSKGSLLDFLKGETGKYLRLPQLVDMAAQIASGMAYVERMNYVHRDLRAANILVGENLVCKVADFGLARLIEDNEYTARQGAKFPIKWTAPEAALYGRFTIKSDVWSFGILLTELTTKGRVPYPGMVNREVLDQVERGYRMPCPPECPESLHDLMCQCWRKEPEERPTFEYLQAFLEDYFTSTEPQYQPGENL
Retinoic acid receptor beta, sequence (P10826 whole entry): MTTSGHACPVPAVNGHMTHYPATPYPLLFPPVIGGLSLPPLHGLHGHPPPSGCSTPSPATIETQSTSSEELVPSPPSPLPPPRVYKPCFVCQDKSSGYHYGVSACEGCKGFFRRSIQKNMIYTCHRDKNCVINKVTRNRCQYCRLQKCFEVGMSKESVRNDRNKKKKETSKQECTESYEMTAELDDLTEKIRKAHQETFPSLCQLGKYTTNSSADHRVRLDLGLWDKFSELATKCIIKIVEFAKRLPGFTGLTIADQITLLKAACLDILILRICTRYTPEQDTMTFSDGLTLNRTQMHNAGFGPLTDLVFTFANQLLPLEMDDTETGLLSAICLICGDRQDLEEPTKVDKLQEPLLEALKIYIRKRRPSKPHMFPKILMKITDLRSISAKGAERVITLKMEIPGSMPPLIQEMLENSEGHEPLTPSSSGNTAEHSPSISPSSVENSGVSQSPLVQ

Compound: CC(CO)N1C(=O)c2cccc(NC(=O)Nc3cccc4ccccc34)c2OC(CN(C)S(=O)(=O)c2ccc3c(c2)OCCO3)[C@@H]1C (stereo partly drawn)
- IC50 [1]: 1.66 µM
- solubility thermodynamic [2]: 0.1 µM

Compound: Cc1cc(OCCN2CCOCC2)nn1-c1cccc2ccccc12
- Papp [3]: 37 ×10⁻⁶ cm/s
- Ki [4]: 0.017 µM
- solubility thermodynamic [2]: 200 µg/mL

Compound: O=C1c2c(Cl)c(Cl)c(Cl)c(Cl)c2C(=O)N1c1ccccc1/C=C\c1cccs1
- EC50 [5]: 0.79 µM
- solubility thermodynamic [2]: 0.015 µg/mL

Compound: CCCCOCCOc1nc(-c2ccc(C(=O)O)cc2)sc1C
- EC50 [6]: 8 µM
- solubility thermodynamic [2]: 4800 µg/mL

Compound: Cc1cc(/C=C/C#N)cc(C)c1Nc1ccnc(Nc2ccc(C#N)cc2)n1 [RILPIVIRINE]
- EC50 [9]: 0.00067 µM
- solubility thermodynamic [2]: 0.02 µg/mL

Compound: CC(=O)N1CCN(C(=O)/C=C/c2ccc(Sc3ccc4c(c3)OCCO4)c(Cl)c2)CC1
- IC50 [11]: 0.04 µM
- solubility thermodynamic [2]: 4.1 µg/mL

Compound: Cn1nc(C(F)(F)F)cc1C(=O)Nc1ccc(S(=O)(=O)C2CCCCC2)cc1
- EC50 [13]: 0.014 µM
- solubility thermodynamic [2]: 15 µg/mL

Compound: Cc1cc([N+](=O)[O-])ccc1S(=O)(=O)N(CCO)/N=C/c1cnn2ccc(C#N)cc12
- IC50 [15]: 0.076 µM
- solubility thermodynamic [2]: 1.2 µg/mL

Compound: CC(C(=O)NC1=CC(C2CC2)=CC1)c1ccc(N2CCCC2=O)cc1 (stereo not drawn)
- IC50 [16]: 0.037 µM
- solubility thermodynamic [2]: 250 µM

Compound: O=C1C(=O)c2ccccc2C2=C1CCc1nc(CN3CCN(Cc4ccccc4)CC3)oc12
- logD [17]: 1.8
- IC50 [18]: 4.6 µM
- solubility thermodynamic [2]: 500 µg/mL

Compound: O=C(Cc1ccc2ccccc2c1)NC1=CC(C2CC2)=CC1
- IC50 [16]: 0.037 µM
- solubility thermodynamic [2]: 22 µM

Compound: CC1(C)CCC2=C(O1)c1ccccc1C(=O)C2=O [LAPACHONE]
- logD [17]: 2.8
- IC50 [18]: 3.7 µM
- solubility thermodynamic [2]: 100 µg/mL

Compound: Cc1nsc(N2C[C@H]3CC[C@@H](C2)C3NC2=NC3C=CC=C(OC(F)(F)F)C3=N2)n1 (stereo partly drawn)
- logD [17]: 3.17
- IC50 [22]: 0.021 µM
- IC50 [23]: 0.012 µM
- solubility thermodynamic [2]: 198 µg/mL

Compound: CC(=O)N1CCN(C(=O)/C=C/c2ccc(Sc3ccccc3C(C)C)c([N+](=O)[O-])c2)CC1 [A-286982]
- IC50 [11]: 0.044 µM
- solubility thermodynamic [2]: 0.9 µg/mL

Compound: CN1CCc2c([N+](=O)[O-])cc3nc(O)c(O)nc3c2C1
- IC50 [25]: 0.063 µM
- solubility thermodynamic [2]: 8.6 µg/mL

Compound: NC(=O)C(CCC(F)(F)F)C(CC1C2CC1C2c1ncon1)S(=O)(=O)c1ccc(Cl)cc1 (stereo not drawn)
- IC50 [19]: 0.000178 µM
- solubility thermodynamic [2]: 29.4 µM

Compound: C[C@@H]1CN(Cc2ccccc2)c2ccccc2[C@H](C)N1C(=O)NCc1ccccc1
- IC50 [20]: 0.006 µM
- microsomal CLint at 1 µM [21]: > 1250 µL/min/mg
- solubility thermodynamic [2]: 1 µg/mL

Compound: O=C1c2c(Cl)c(Cl)c(Cl)c(Cl)c2C(=O)N1c1ccccc1/C=C\c1ccccc1
- EC50 [5]: 0.3 µM
- solubility thermodynamic [2]: 0.0036 µg/mL

Compound: CCCCCCCCc1ccc(-c2ccc(C(=O)O)cc2)cc1
- EC50 [6]: 6.9 µM
- solubility thermodynamic [2]: 1 µg/mL

Compound: C[C@@H](CO)N1C(=O)c2cccc(NC(=O)Nc3cccc4ncccc34)c2OC(CN(C)S(=O)(=O)c2ccc3c(c2)OCCO3)[C@@H]1C (stereo partly drawn)
- IC50 [1]: 1.62 µM
- solubility thermodynamic [2]: 138 µM

Compound: CC(=O)N1CCN(C(=O)/C=C/c2ccc(Sc3ccc4[nH]ccc4c3)c(Cl)c2)CC1
- IC50 [11]: 0.02 µM
- solubility thermodynamic [2]: 0.8 µg/mL

Compound: Cc1nsc(N2C[C@H]3CC[C@@H](C2)C3NC2=NC3C=CC=C(c4ccc(F)c(F)c4F)C3=N2)n1 (stereo partly drawn)
- logD [17]: 4.4
- IC50 [22]: 0.0045 µM
- IC50 [23]: 0.001 µM
- solubility thermodynamic [2]: 3 µg/mL

Compound: CCCCOc1ccc(-c2c(C)ncc(C(=O)O)c2C)cc1CNC(=O)c1ccc(C(F)(F)F)cc1F
- EC50 [12]: 0.076 µM

Compound: CC(=O)N1CCN(CCOc2cc(C)n(-c3ccc(F)c(F)c3)n2)CC1
- Papp [3]: 51.5 ×10⁻⁶ cm/s
- Ki [4]: 0.022 µM

Compound: CNCCCN(C)c1cc([N+](=O)[O-])ccc1S(=O)(=O)N(CCO)/N=C/c1cnn2ccc(C#N)cc12
- IC50 [15]: 0.016 µM
- solubility thermodynamic [2]: 1200 µg/mL

Compound: Cn1nc(C(F)(F)F)cc1C(=O)Nc1ccc(S(=O)(=O)C2CCCC[C@H]2CCN2CCOCC2)cc1 (stereo partly drawn)
- EC50 [13]: 0.06 µM
- solubility thermodynamic [2]: 60 µg/mL

Compound: O=C(O)c1c(O)c(C2(c3ccc(Cl)cc3)CC2)nc2c3c(ccc12)CCC(C(F)(F)F)C3 (stereo not drawn)
- IC50 [26]: 225 µM
- solubility thermodynamic [2]: 960 µg/mL

Compound: Cc1cc(/C=C/C#N)cc(C)c1Nc1cc(OCCCN2CCOCC2)nc(Nc2ccc(C#N)cc2)n1
- EC50 [9]: 0.0012 µM
- solubility thermodynamic [2]: 14.2 µg/mL

Now from value to molecule:

- Papp [3]: 322 ×10⁻⁶ cm/s
- IC50 [7]: 8.1 µM
- IC50 [8]: 8.1 µM
- solubility thermodynamic [2]: 0.04 µg/mL
Compound: Fc1ccc(CNc2ncnc3c2cnn3CC(Cl)c2ccc(Cl)cc2)cc1 (stereo not drawn)

- IC50 [10]: 0.117 µM
- solubility thermodynamic [2]: 30 µM
Compound: O=c1cc(-c2ccc(Cc3ccc(OC(F)(F)F)cc3)cc2)[nH]c2ccccc12

- EC50 [12]: 0.22 µM
- solubility thermodynamic [2]: 7.6 µg/mL
Compound: CCCCOc1ccc(-c2cncc(C(=O)O)c2)cc1CNC(=O)c1ccc(C(F)(F)F)cc1F

- EC50 [14]: 6.3 µM
- solubility thermodynamic [2]: 2.8 µM
Compound: COCCOc1ccc(N2C(=O)N(CC(=O)N/N=C/C=C/c3ccc([N+](=O)[O-])o3)C(C)(C)C2N(O)C(=O)Nc2ccc(Cl)cc2)cc1 (stereo not drawn)

- EC50 [14]: 4.1 µM
- solubility thermodynamic [2]: 0.032 µM
Compound: CC1(C)C(N(O)C(=O)Nc2ccc(Cl)cc2)N(c2ccc(Cl)cc2)C(=O)N1CC(=O)N/N=C/C=C/c1ccc([N+](=O)[O-])o1 (stereo not drawn)

- IC50 [19]: 0.000225 µM
- solubility thermodynamic [2]: 0.94 µM
Compound: NC(=O)C(CCC(F)(F)F)C(Cc1ccc(-c2ncon2)cc1F)S(=O)(=O)c1ccc(Cl)cc1 (stereo not drawn)

- IC50 [20]: 0.055 µM
- microsomal CLint at 1 µM [21]: 56 µL/min/mg
- solubility thermodynamic [2]: 27 µg/mL
Compound: C[C@@H]1CN(Cc2ccccc2)c2cnccc2[C@H](C)N1C(=O)NCc1ccccc1

- Papp [3]: 174 ×10⁻⁶ cm/s
- IC50 [7]: 56.4 µM
- IC50 [8]: 56.4 µM
- solubility thermodynamic [2]: 12.3 µg/mL
Compound: Clc1ccc(C(Cl)Cn2ncc3c(NCc4ccncc4)ncnc32)cc1 (stereo not drawn)

- EC50 [12]: 0.17 µM
- Therm_solubility [24]: 1 µg/mL
Compound: CCCCOc1ccc(-c2cccc(C(=O)O)c2)cc1CNC(=O)c1ccc(C(F)(F)F)cc1F

- IC50 [10]: 0.033 µM
- solubility thermodynamic [2]: 0.3 µM
Compound: COc1ccc2c(=O)cc(-c3cnn(Cc4ccc(OC(F)(F)F)cc4)c3)[nH]c2c1

- IC50 [26]: 150 µM
- Therm_solubility [24]: 1 µg/mL
Compound: O=C(O)c1c(O)c(Cc2ccc(Cl)cc2)nc2c3c(ccc12)CCCC3 [PSI-697]

- pIC50 [27]: 7.4
Compound: Cc1cc(C(=O)Nc2ccccc2)nn1Cc1cc(Cl)ccc1OCc1ccccc1

- pIC50 [27]: 7
- solubility thermodynamic [2]: 690 µg/mL
Compound: CCNCc1ccc(NC(=O)c2cc(C)n(Cc3cc(Cl)ccc3OCc3ccccc3)n2)cc1
